# Measured values published in patent US20200087340A1, “LIF/LIFR ANTAGONIST IN ONCOLOGY AND NONMALIGNANT DISEASES” (Evestra, Inc., priority 2018, published 2020).
# What was measured:
# OVCAR-8 = assay: NCI-60 screening, Ovarian Cancer; assay type: cell-based, human
# OVCAR-4 = assay: NCI-60 screening, Ovarian Cancer; assay type: cell-based, human
# A549/ATCC = assay: NCI-60 screening, Non-Small Cell Lung Cancer; assay type: cell-based, human
# SK-OV-3 = assay: NCI-60 screening, Ovarian Cancer; assay type: cell-based, human
# SK-MEL-2 = assay: NCI-60 screening, Melanoma; assay type: cell-based, human
# SK-MEL-28 = assay: NCI-60 screening, Melanoma; assay type: cell-based, human
# MCF-7 cells = assay: P53 / MDM2 levels in MCF-7 cells; assay type: cell-based, human
# NCI-H226 = assay: NCI-60 screening, Non-Small Cell Lung Cancer; assay type: cell-based, human
# HCT-15 = assay: NCI-60 screening, Colon Cancer; assay type: cell-based, human
# UO-31 = assay: NCI-60 screening, Renal Cancer; assay type: cell-based, human
# SK-MEL-5 = assay: NCI-60 screening, Melanoma; assay type: cell-based, human
# CAKI-1 = assay: NCI-60 screening, Renal Cancer; assay type: cell-based, human
# NCI-H460 = assay: NCI-60 screening, Non-Small Cell Lung Cancer; assay type: cell-based, human
# DU-145 = assay: NCI-60 screening, Prostate Cancer; assay type: cell-based, human
# HCT-116 = assay: NCI-60 screening, Colon Cancer; assay type: cell-based, human
# UACC-257 = assay: NCI-60 screening, Melanoma; assay type: cell-based, human
# [1] = tested on: MDA-MB-231 (TNBC) Xenograft; assay: Tumor xenograft study, MDA-MB-231; assay type: in vivo, mice
# Experimental: Uniform suspensions of human breast cancer MDA-MB-231 and human ovarian cancer IGROV1 cells (2×10^6) in 100 μL (0.02 carboxymethyl cellulose in phosphate buffered saline) were injected subcutaneously into the right and left flanks of 4- to 5-week-old female athymic nude mice (Charles River Laboratories). After 10 days, when the tumor […] reaches 100 mm^3, the mice were randomly allocated to 3 groups of each containing 6 animals. […] All drug was suspended in PBS followed by sonication (15 seconds with an intermittent interval of 5 seconds) for 1 minute. Tumors were allowed to reach palpability before drug intervention. Tumor size was measured every 3 days using digital Vernier Calipers and tumor volume was calculated using the ellipsoid formula [D×(d2)]/2, where D is the large diameter of the tumor and d represents the small diameter. On day 31, the mice were euthanized and tumors were harvested for protein and gene expression studies. […] FIG. 6B depicts a graph of tumor volume vs. time for the administration of EC300 at 2.5 mg/kg twice weekly in the MDA-MB-231 (TNBC) Xenograft. […] FIG. 7 depicts a graph of tumor volume vs. time for the administration of EC300 at 5 mg/kg 5 days per week in the IGROV1 (Ovarian) Xenograft. […] STAT3 phosphorylation is reduced in tumors that underwent treatment compared to control which is an indication of LIF downstream target.
# T-47D = assay: NCI-60 screening, Breast Cancer; assay type: cell-based, human
# HOP-92 = assay: NCI-60 screening, Non-Small Cell Lung Cancer; assay type: cell-based, human
# IGROV1 = assay: NCI-60 screening, Ovarian Cancer; assay type: cell-based, human
# Experimental: Additional four, 10-fold or ½ log serial dilutions are made to provide a total of five drug concentrations plus control.
# For adherent cells, the assay is terminated by the addition of cold TCA. Cells are fixed in situ by the gentle addition of 50 μl of cold 50% (w/v) TCA (final concentration, 10% TCA) and incubated for 60 minutes at 4° C. The supernatant is discarded, and the plates are washed five times with tap water and air dried. Sulforhodamine B (SRB) solution (100 μl) at 0.4% (w/v) in 1% acetic acid is added to each well, and plates are incubated for 10 minutes at room temperature. After staining, unbound dye is removed by washing five times with 1% acetic acid and the plates are air dried. […] Using the seven absorbance measurements [time zero, (Tz), control growth, (C), and test growth in the presence of drug at the five concentration levels (Ti)], the percentage growth is calculated at each of the drug concentrations levels. […]
# Three dose response parameters are calculated for each experimental agent. […] The drug concentration resulting in total growth inhibition (TGI) is calculated from Ti=Tz. […] Values are calculated for each of these three parameters if the level of activity is reached; however, if the effect is not reached or is exceeded, the value for that parameter is expressed as greater or less than the maximum or minimum concentration tested.
# RPMI-8226 = assay: NCI-60 screening, Leukemia; assay type: cell-based, human
# SF-268 = assay: NCI-60 screening, CNS Cancer; assay type: cell-based, human
# COLO 205 = assay: NCI-60 screening, Colon Cancer; assay type: cell-based, human
# SW-620 = assay: NCI-60 screening, Colon Cancer; assay type: cell-based, human
# K-562 = assay: NCI-60 screening, Leukemia; assay type: cell-based, human
# HS 578T = assay: NCI-60 screening, Breast Cancer; assay type: cell-based, human
# U251 = assay: NCI-60 screening, CNS Cancer; assay type: cell-based, human
# MCF7 = assay: NCI-60 screening, Breast Cancer; assay type: cell-based, human
# [2] = tested on: Patient derived tumor (melanoma); assay: Immunohistochemistry analysis of treated patient derived tumor; assay type: cell-based, human; conditions: 10 nM and 1 uM for 5 days
# Experimental: Patient derived tumor (melanoma) was treated with the compounds at 10 nM and 1 uM for 5 days in RPMI medium and harvested on day 6 using established protocol and immunohistochemistry was performed for different antibodies including p53, LIF, MDM2, pSTAT3, Ki67.
# SF-539 = assay: NCI-60 screening, CNS Cancer; assay type: cell-based, human
smiles,measurement,setting,value
"C#CC(F)(F)[C@]1(O)CCC2C3CCC4=CC(=O)CCC4=C3C(c3ccc(C4CC4)cc3)C[C@@]21C (stereo partly drawn) [EC330, 17α-(1,1-difluoro-2-propyn-1-yl)-17β-hydroxy-11β-[4-p-(cyclopropyl)phenyl]estra-4,9-dien-3-one]",TGI (log10TGI),OVCAR-8,−4.43
same,TGI (log10TGI),OVCAR-4,>−4.00
same,TGI (log10TGI),A549/ATCC,−4.61
same,TGI (log10TGI),SK-OV-3,−6.55
same,TGI (log10TGI),SK-MEL-2,−5.19
same,TGI (log10TGI),SK-MEL-28,−5.43
same,P53 levels / MDM2,MCF-7 cells,restore P53 levels by inhibiting MDM2
same,TGI (log10TGI),NCI-H226,−5.04
same,TGI (log10TGI),HCT-15,>−4.00
same,TGI (log10TGI),UO-31,<−8.00
same,TGI (log10TGI),SK-MEL-5,−4.79
same,TGI (log10TGI),CAKI-1,−6.41
same,TGI (log10TGI),NCI-H460,−4.80
same,TGI (log10TGI),DU-145,−4.75
same,TGI (log10TGI),HCT-116,−4.55
same,TGI (log10TGI),UACC-257,>−4.00
same,apoptosis in xenograft tumors,[1]; MDA-MB-231 breast cancer xenograft tumors,induced apoptosis dose dependently
same,tumor growth,[1]; human triple negative breast cancer (TNBC) model,significantly reduced
same,TGI (log10TGI),T-47D,−5.00
same,TGI (log10TGI),HOP-92,<−8.00
same,TGI (log10TGI),IGROV1,<−8.00
same,TGI (log10TGI),RPMI-8226,−6.24
same,TGI (log10TGI),SF-268,−6.43
same,TGI (log10TGI),COLO 205,−5.53
same,TGI (log10TGI),SW-620,−4.79
same,TGI (log10TGI),K-562,>−4.00
same,TGI (log10TGI),HS 578T,−4.99
same,TGI (log10TGI),U251,−5.78
same,TGI (log10TGI),MCF7,−4.96
same,"apoptosis, p53, MDM2, LIF mediated STAT3 phosphorylation (immunohistochemistry)",[2],induce apoptosis and restore p53 by inhibiting MDM2 and LIF mediated STAT3 phosphorylation
same,TGI (log10TGI),SF-539,−7.77
